The values that follow come from patent publication USRE37781E1, “Substituted cyclic carbonyls and derivatives thereof useful as retroviral protease inhibitors” (DuPont Pharmaceuticals Company, priority 1991, dated 2002).

The term Ki denotes the dissociation constant of the complex between target and ligand, obtained from inhibition or displacement. A high value points to a looser hold on the target. The term IC90 denotes the concentration needed for an effect of 90%. By melting point is commonly meant the temperature of the solid-liquid transition.

Molecules are shown by their SMILES. ≈ marks a conversion by molar mass, not a printed value.

The first data set concerns the target T1, HIV protease (Human immunodeficiency virus type 1 group M subtype B, UniProt P04585).
T1 construct: plasmid containing HIV protease under the control of an inducible T7 promoter; made in house; host or cells: E. coli (inclusion bodies, T7 promoter)
Kind of data set: biochemical. Also on record: species or system HIV-1. Particulars: Ki. How it is done: HIV Protease Inhibition Assay—Spectroscopic Method
Inclusion bodies were solubilized in 8M urea, 50 mM tris pH 8.0. Protease activity was recovered by dilution 20-fold into buffer containing 50 mM sodium acetate pH 5.5, 1 mM EDTA, 10% glycerol and 5% ethylene glycol. Enzyme was used at a final concentration of 1.0-10 ug/ml.
Stock solutions of 10 mM were prepared in DMSO.
All further dilutions were done in DMSO.
With `CCCCCN1C(=O)N(CCCCC)C(Cc2ccccc2)C(O)C(O)C1Cc1ccccc1` (stereo not shown) [Example 1AK], the inhibitory constant (Ki) is below 10 nM.
Same read-out and setting: next, `CC(C)CCCCCN1C(=O)N(CCCCCC(C)C)C(Cc2ccccc2)C(O)C(O)C1Cc1ccccc1` (stereo not shown) [Example 1AL]: 10 to 1000 nM; `CC(C)CCCN1C(=O)N(CCCC(C)C)C(Cc2ccccc2)C(O)C(O)C1Cc1ccccc1` (stereo not shown) [Example 1AM]: below 10 nM.
Still for that read-out and setting: the result for `CC(C)CCCCN1C(=O)N(CCCCC(C)C)C(Cc2ccccc2)C(O)C(O)C1Cc1ccccc1` (stereo not shown) [Example 1AN] reads 10 to 1000 nM.
As to `N#CN=C1N(CC2CC2)[C@H](Cc2ccccc2)[C@H](O)[C@@H](O)[C@@H](Cc2ccccc2)N1CC1CC1` [Example 1BS], the inhibition constant (Ki) was 10 to 1000 nM.
Same read-out and setting: next, `N#CN=C1N(Cc2ccc(OCc3ccccc3)cc2)C(Cc2ccccc2)C(O)C(O)C(Cc2ccccc2)N1Cc1ccc(OCc2ccccc2)cc1` (stereo not shown) [Example 1BT]: 10 to 1000 nM.
On the same count and under the same terms, next, `N#CN=C1N(Cc2ccc(O)cc2)C(Cc2ccccc2)C(O)C(O)C(Cc2ccccc2)N1Cc1ccc(O)cc1` (stereo not shown) [Example 1BU]: below 10 nM.
Still for that read-out and setting: the result for `N#CN=C1N(CC2CCCC2)C(Cc2ccccc2)C(O)C(O)C(Cc2ccccc2)N1CC1CCCC1` (stereo not shown) [Example 1BV] reads below 10 nM.
Regarding `C=CCN1C(=NC#N)N(CC=C)C(Cc2ccccc2)C(O)C(O)C1Cc1ccccc1` (stereo not shown) [Example 1BW], the inhibition constant Ki was in the range of 10 to 1000 nM.
Same read-out and setting: the result for `CCCCN1C(=NC#N)N(CCCC)C(Cc2ccccc2)C(O)C(O)C1Cc1ccccc1` (stereo not shown) [Example 1BX] reads below 10 nM; that for `N#CN=C1N(Cc2ccc3ccccc3c2)C(Cc2ccccc2)C(O)C(O)C(Cc2ccccc2)N1Cc1ccc2ccccc2c1` (stereo not shown) [Example 1BY], 10 to 1000 nM.
The same measure, in the same setting: the result for `N#CN=C1N(Cc2ccccc2)C(Cc2ccccc2)C(O)C(O)C(Cc2ccccc2)N1Cc1ccccc1` (stereo not shown) [Example 1BZ] reads 10 to 1000 nM; that for `N#CN=C1N(Cc2cccc(OCc3ccccc3)c2)C(Cc2ccccc2)C(O)C(O)C(Cc2ccccc2)N1Cc1cccc(OCc2ccccc2)c1` (stereo not shown) [Example 1CA], 10 to 1000 nM.
Same read-out and setting: the result for `N#CN=C1N(Cc2cccc(O)c2)C(Cc2ccccc2)C(O)C(O)C(Cc2ccccc2)N1Cc1cccc(O)c1` (stereo not shown) [Example 1CD] reads below 10 nM; that for `N#CN=C1N(Cc2ccc(N)cc2)C(Cc2ccccc2)C(O)C(O)C(Cc2ccccc2)N1Cc1ccc(N)cc1` (stereo not shown) [Example 1CE], 10 to 1000 nM; that for `N#CN=C1N(Cc2cccc(N)c2)C(Cc2ccccc2)C(O)C(O)C(Cc2ccccc2)N1Cc1cccc(N)c1` (stereo not shown) [Example 1CF], below 10 nM.
Compound `N#CN=C1N(Cc2cccc(C#N)c2)C(Cc2ccccc2)C(O)C(O)C(Cc2ccccc2)N1Cc1cccc(C#N)c1` (stereo not shown) [Example 1CH] displayed an inhibition constant (Ki) of 10 to 1000 nM.
Same read-out and setting: the result for `CC(C)=CCN1C(=NC#N)N(CC=C(C)C)C(Cc2ccccc2)C(O)C(O)C1Cc1ccccc1` (stereo not shown) [Example 1CI] reads 10 to 1000 nM.
Take `N#CN=C1N(CC2CCCCC2)C(Cc2ccccc2)C(O)C(O)C(Cc2ccccc2)N1CC1CCCCC1` (stereo not shown) [Example 1CJ]: the inhibition constant Ki is below 10 nM.
Still for that read-out and setting: the result for `CN1C(=O)N(C)C(Cc2ccccc2)C(O)C(O)C1Cc1ccccc1` (stereo not shown) [Example 1W] reads above 1000 nM.

In the next data set the test system is HIV-1 (RF) in MT-2 cells. Put plainly: microbe, parasite or virus in culture. The format is cell-based. The note with it: Human immunodeficiency virus 1, MT2, Table 1c; read-out: IC90. A digest of the protocol: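 HIV-1 laboratory strains (RF, MN, IIIB) grown in H9 cells in RPMI 1640 with 5% FCS; infections in MT-2 cells. Viral RNA quantified by hybridization with biotinylated gag/pol capture probes on streptavidin plates and alkaline phosphatase-conjugated reporter probes; BH10 gag-pol in vitro transcripts serve as RNA standards.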
`N#CN=C1N(CC2CC2)[C@H](Cc2ccccc2)[C@H](O)[C@@H](O)[C@@H](Cc2ccccc2)N1CC1CC1` [Example 1BS]: the 90% effect concentration (IC90) was below 10 µg/mL.
Consider `N#CN=C1N(Cc2ccc(OCc3ccccc3)cc2)C(Cc2ccccc2)C(O)C(O)C(Cc2ccccc2)N1Cc1ccc(OCc2ccccc2)cc1` (stereo not shown) [Example 1BT], for which the IC90 is above 100 µg/mL.
The same measure, in the same setting: next, `N#CN=C1N(Cc2ccc(O)cc2)C(Cc2ccccc2)C(O)C(O)C(Cc2ccccc2)N1Cc1ccc(O)cc1` (stereo not shown) [Example 1BU]: below 10 µg/mL; `N#CN=C1N(CC2CCCC2)C(Cc2ccccc2)C(O)C(O)C(Cc2ccccc2)N1CC1CCCC1` (stereo not shown) [Example 1BV]: below 10 µg/mL; `C=CCN1C(=NC#N)N(CC=C)C(Cc2ccccc2)C(O)C(O)C1Cc1ccccc1` (stereo not shown) [Example 1BW]: 10 to 100 µg/mL (≈ 23.2 to 232 µM).
Same read-out and setting: next, `CCCCN1C(=NC#N)N(CCCC)C(Cc2ccccc2)C(O)C(O)C1Cc1ccccc1` (stereo not shown) [Example 1BX]: below 10 µg/mL; `N#CN=C1N(Cc2ccc3ccccc3c2)C(Cc2ccccc2)C(O)C(O)C(Cc2ccccc2)N1Cc1ccc2ccccc2c1` (stereo not shown) [Example 1BY]: above 100 µg/mL.
The same measure, in the same setting: next, `N#CN=C1N(Cc2ccccc2)C(Cc2ccccc2)C(O)C(O)C(Cc2ccccc2)N1Cc1ccccc1` (stereo not shown) [Example 1BZ]: below 10 µg/mL.
Regarding `N#CN=C1N(Cc2cccc(OCc3ccccc3)c2)C(Cc2ccccc2)C(O)C(O)C(Cc2ccccc2)N1Cc1cccc(OCc2ccccc2)c1` (stereo not shown) [Example 1CA], the IC90 is above 100 µg/mL.
In the case of `N#CN=C1N(Cc2cccc(O)c2)C(Cc2ccccc2)C(O)C(O)C(Cc2ccccc2)N1Cc1cccc(O)c1` (stereo not shown) [Example 1CD], the IC90 is below 10 µg/mL.
On the same count and under the same terms, next, `N#CN=C1N(Cc2ccc(N)cc2)C(Cc2ccccc2)C(O)C(O)C(Cc2ccccc2)N1Cc1ccc(N)cc1` (stereo not shown) [Example 1CE]: below 10 µg/mL.
The same measure, in the same setting: next, `N#CN=C1N(Cc2cccc(N)c2)C(Cc2ccccc2)C(O)C(O)C(Cc2ccccc2)N1Cc1cccc(N)c1` (stereo not shown) [Example 1CF]: below 10 µg/mL; `N#CN=C1N(Cc2cccc(C#N)c2)C(Cc2ccccc2)C(O)C(O)C(Cc2ccccc2)N1Cc1cccc(C#N)c1` (stereo not shown) [Example 1CH]: below 10 µg/mL; `CC(C)=CCN1C(=NC#N)N(CC=C(C)C)C(Cc2ccccc2)C(O)C(O)C1Cc1ccccc1` (stereo not shown) [Example 1CI]: below 10 µg/mL.
Still for that read-out and setting: next, `N#CN=C1N(CC2CCCCC2)C(Cc2ccccc2)C(O)C(O)C(Cc2ccccc2)N1CC1CCCCC1` (stereo not shown) [Example 1CJ]: below 10 µg/mL.

System in another data set: not given
Test: not given
Settings: not given
Regarding `CCCCCN1C(=O)N(CCCCC)C(Cc2ccccc2)C(O)C(O)C1Cc1ccccc1` (stereo not shown) [Example 1AK], the melting point lay in the range of 125 to 127 °C.
Same read-out and setting: next, `CC(C)CCCCCN1C(=O)N(CCCCCC(C)C)C(Cc2ccccc2)C(O)C(O)C1Cc1ccccc1` (stereo not shown) [Example 1AL]: 144 to 145 °C.
`CC(C)CCCN1C(=O)N(CCCC(C)C)C(Cc2ccccc2)C(O)C(O)C1Cc1ccccc1` (stereo not shown) [Example 1AM]: the melting point is 120 to 122 °C.
Same read-out and setting: next, `CC(C)CCCCN1C(=O)N(CCCCC(C)C)C(Cc2ccccc2)C(O)C(O)C1Cc1ccccc1` (stereo not shown) [Example 1AN]: 105 to 107 °C; `N#CN=C1N(CC2CC2)[C@H](Cc2ccccc2)[C@H](O)[C@@H](O)[C@@H](Cc2ccccc2)N1CC1CC1` [Example 1BS]: 211.2 °C.
Same read-out and setting: next, `N#CN=C1N(Cc2ccc(OCc3ccccc3)cc2)C(Cc2ccccc2)C(O)C(O)C(Cc2ccccc2)N1Cc1ccc(OCc2ccccc2)cc1` (stereo not shown) [Example 1BT]: 90.1 °C.
`N#CN=C1N(Cc2ccc(O)cc2)C(Cc2ccccc2)C(O)C(O)C(Cc2ccccc2)N1Cc1ccc(O)cc1` (stereo not shown) [Example 1BU] displayed a melting point of 103.3 °C.
On the same count and under the same terms, next, `N#CN=C1N(CC2CCCC2)C(Cc2ccccc2)C(O)C(O)C(Cc2ccccc2)N1CC1CCCC1` (stereo not shown) [Example 1BV]: 99.7 °C; `C=CCN1C(=NC#N)N(CC=C)C(Cc2ccccc2)C(O)C(O)C1Cc1ccccc1` (stereo not shown) [Example 1BW]: 70.2 °C.
Regarding `CCCCN1C(=NC#N)N(CCCC)C(Cc2ccccc2)C(O)C(O)C1Cc1ccccc1` (stereo not shown) [Example 1BX], the melting point came out at 58.3 °C.
On the same count and under the same terms, the result for `N#CN=C1N(Cc2ccc3ccccc3c2)C(Cc2ccccc2)C(O)C(O)C(Cc2ccccc2)N1Cc1ccc2ccccc2c1` (stereo not shown) [Example 1BY] reads 111.1 °C.
Same read-out and setting: next, `N#CN=C1N(Cc2ccccc2)C(Cc2ccccc2)C(O)C(O)C(Cc2ccccc2)N1Cc1ccccc1` (stereo not shown) [Example 1BZ]: 94 °C; `N#CN=C1N(Cc2cccc(OCc3ccccc3)c2)C(Cc2ccccc2)C(O)C(O)C(Cc2ccccc2)N1Cc1cccc(OCc2ccccc2)c1` (stereo not shown) [Example 1CA]: 75.2 °C.
Same read-out and setting: the result for `N#CN=C1N(Cc2cccc(O)c2)C(Cc2ccccc2)C(O)C(O)C(Cc2ccccc2)N1Cc1cccc(O)c1` (stereo not shown) [Example 1CD] reads 124 °C; that for `N#CN=C1N(Cc2ccc(N)cc2)C(Cc2ccccc2)C(O)C(O)C(Cc2ccccc2)N1Cc1ccc(N)cc1` (stereo not shown) [Example 1CE], 226.3 °C; that for `N#CN=C1N(Cc2cccc(N)c2)C(Cc2ccccc2)C(O)C(O)C(Cc2ccccc2)N1Cc1cccc(N)c1` (stereo not shown) [Example 1CF], 114.4 °C.
In the case of `N#CN=C1N(Cc2cccc(C#N)c2)C(Cc2ccccc2)C(O)C(O)C(Cc2ccccc2)N1Cc1cccc(C#N)c1` (stereo not shown) [Example 1CH], the melting point turned out to be 108.5 °C.
Still for that read-out and setting: next, `CC(C)=CCN1C(=NC#N)N(CC=C(C)C)C(Cc2ccccc2)C(O)C(O)C1Cc1ccccc1` (stereo not shown) [Example 1CI]: 72.9 °C; `N#CN=C1N(CC2CCCCC2)C(Cc2ccccc2)C(O)C(O)C(Cc2ccccc2)N1CC1CCCCC1` (stereo not shown) [Example 1CJ]: 96.4 °C.
Still for that read-out and setting: the result for `CN1C(=O)N(C)C(Cc2ccccc2)C(O)C(O)C1Cc1ccccc1` (stereo not shown) [Example 1W] reads 170 to 174 °C.
